Measurements: US11884627B2, “Compounds and compositions for treating conditions associated with LPA receptor activity” (Lhotse Bio, Inc., priority 2022, dated 2024)
Where two headings read alike, the source gives them in different places.

Target: T1, human LPA1 (Homo sapiens, UniProt Q92633)
T1 construct: expressed in transfected cells; host or cells: CHO-K1
Assay: In vitro LPA1 calcium flux antagonist assay - Bioduro protocol
Assay type: cell-based
Details: CHO-K1 cells overexpressing human LPA1 and G15a, LPA challenge at EC80
Experimental: In Vitro LPA1 Calcium Flux Antagonist Assay—Bioduro Protocol
CHO-K1 cells overexpressing human LPA1 and G15a were seeded at a total volume of 20 μL (15000 cells/well) into Matrigel pre-coated 384-well plates (corning −3764) and incubated at 37° C. After overnight incubation, the cells were serum starved for 4 h. Assays were performed in dye loading buffer containing 1× Fluo-8 AM (AAT Bioquest, 21080) and 2.5 mM probenecid (Thermo Fisher, 36400) in HBSS/20 mM Hepes. After cell starvation, the medium was replaced with 20 μL of dye loading buffer and incubated at 37° C., for 30 min. Then 5 μL of 5× compound titrated in dye loading buffer was added to the cells and incubated for 30 min followed by LPA challenge at EC80. Calcium mobilization was measured on a FLIPR Tetra (MSD). For LPA EC80 determination, starved cells were incubated with 20 μL of dye loading buffer for 1 h, then 5 μL of 5×LPA titrated in dye loading buffer was added to the cells. Calcium signals induced by LPA was monitors on a FLIPR.
Percentage inhibition is calculated using the following formula: % Inhibition=100%×(1−(mean RFU of test sample−mean RFU of DMSO)/(mean RFU of LPA control−mean RFU of DMSO)).
Table B3 and Table B4 show the biological activity of compounds in in vitro LPA1 Calcium flux antagonist assay—Bioduro protocol.

[1] = calcium mobilization on FLIPR Tetra, read-out: IC50
[2] = Table B3, read-out: Activity (IC50 class)

T1 sequence (Q92633 whole entry): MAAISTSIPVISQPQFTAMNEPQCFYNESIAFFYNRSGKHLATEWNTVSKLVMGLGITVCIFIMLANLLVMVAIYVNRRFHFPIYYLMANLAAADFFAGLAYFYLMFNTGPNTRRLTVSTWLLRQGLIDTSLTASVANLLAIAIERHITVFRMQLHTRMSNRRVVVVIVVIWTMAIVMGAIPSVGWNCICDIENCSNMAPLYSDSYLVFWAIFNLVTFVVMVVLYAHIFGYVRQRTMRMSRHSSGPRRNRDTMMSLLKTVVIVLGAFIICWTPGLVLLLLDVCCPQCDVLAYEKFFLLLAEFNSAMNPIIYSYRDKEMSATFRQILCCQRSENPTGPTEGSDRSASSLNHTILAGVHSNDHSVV

Structure (SMILES) | IC50 [1] [nM] | IC50 [2] [nM]
COc1cc(-c2ccc(NC3(C(=O)O)CCOCC3)cc2COC2Cc3ccccc3C2)cc(OC)c1C(C)O (stereo not shown) [Compound 135] | 27.8 | < 100
COc1cc(-c2ccc(NC3(C(=O)O)CCNCC3)cc2COC2Cc3ccccc3C2)cc(OC)c1C [Compound 136] | 885 | > 1000
CCOC1CC(Nc2ccc(-c3cc(OC)c(C)c(OC)c3)c(COC3Cc4ccccc4C3)c2)(C(=O)O)C1 (stereo not shown) [Compound 137] | 45.2 | < 100
COc1cc(-c2ccc(NC3(C(=O)O)CCN(C)CC3)cc2COC2CCCC2)cc(OC)c1C [Compound 138] | 174 | 100 to 1000
COc1cc(-c2ccc(NC3(C(=O)O)CCN(C(C)=O)CC3)cc2COC2CCCC2)cc(OC)c1C [Compound 139] | 353 | 100 to 1000
COC(=O)N1CCC(Nc2ccc(-c3cc(OC)c(C)c(OC)c3)c(COC3CCCC3)c2)(C(=O)O)CC1 [Compound 140, 4-((2-((cyclopentyloxy)methyl)-3′,5′-dimethoxy-4′-methyl-[1,1′-biphenyl]-4-yl)amino)-1-(methoxycarbonyl)piperidine-4-carboxylic acid] | 28.8 | < 100
COc1cc(-c2c(C)cc(NC3(C(=O)O)CCOCC3)cc2COC2CCCC2)cc(OC)c1C [Compound 141, 4-((2-((cyclopentyloxy)methyl)-3′,5′-dimethoxy-4′,6-dimethyl-[1,1′-biphenyl]-4-yl)amino) tetrahydro-2H-pyran-4-carboxylic acid] | 24.5 | < 100
COc1cc(-c2ccc(NC3(C(=O)O)CCNCC3)cc2COC2CCCC2)cc(OC)c1C [Compound 142] | > 10000 | > 1000
COCC1CC(Nc2ccc(-c3cc(OC)c(C)c(OC)c3)c(COC3Cc4ccccc4C3)c2)(C(=O)O)C1 (stereo not shown) [Compound 143] | 53.8 | < 100
COC(=O)N1CC(Nc2ccc(-c3cc(OC)c(C)c(OC)c3)c(COC3CCCC3)c2)(C(=O)O)C1 [Compound 144] | 59.5 | < 100
COc1cc(-c2ccc(NC3(C(=O)O)CCOCC3)cc2COC2CCCC2)ccc1C [Compound 145] | 486 | 100 to 1000
COc1cc(OC)cc(-c2ccc(NC3(C(=O)O)CCOCC3)cc2COC2CCCC2)c1 [Compound 146] | 77.2 | < 100
COc1cc(-c2c(F)cc(NC3(C(=O)O)CCOCC3)cc2COC2CCCC2)cc(OC)c1C [Compound 147, 4-((2-((cyclopentyloxy)methyl)-6-fluoro-3′,5′-dimethoxy-4′-methyl-[1,1′-biphenyl]-4-yl)amino)tetrahydro-2H-pyran-4-carboxylic acid] | 20.9 | < 100
COc1cc(-c2ccc(NC3(C(=O)O)CCOCC3)cc2COC2CCCC2)c(C)c(OC)c1C [Compound 148, 4-((2-((cyclopentyloxy)methyl)-3′,5′-dimethoxy-2′,4′-dimethyl-[1,1′-biphenyl]-4-yl)amino)tetrahydro-2H-pyran-4-carboxylic acid] | 10.5 | < 100
COc1cc(-c2c(C)cc(NC3(C(=O)O)CCOCC3)cc2COC2CCCC2)c(C)c(OC)c1C [Compound 149] | 88 | < 100
COc1cc(-c2ccc(NC3(C(=O)O)CCOCC3)cc2COCC2(C#N)CC2)cc(OC)c1C [Compound 151] | 1580 | > 1000
COc1cc(-c2ccc(NC3(C(=O)O)CCOCC3)cc2COC2CCCC2)cc(OC)n1 [Compound 152, 4-((3-((cyclopentyloxy)methyl)-4-(2,6-dimethoxypyridin-4-yl)phenyl)amino)tetrahydro-2H-pyran-4-carboxylic acid] | 390 | 100 to 1000
COc1cc(-c2ccc(NC3(C(=O)O)CCOCC3)cc2CNC2CCCC2)cc(OC)c1C [Compound 153] | > 10000 | > 1000
COC(=O)N1CCC(Nc2cc(C)c(-c3cc(OC)cc(OC)c3)c(COC3CCCC3)c2)(C(=O)O)CC1 [Compound 154] | 224 | 100 to 1000
CCOC(=O)N1CCC(Nc2cc(C)c(-c3cc(OC)cc(OC)c3)c(COC3CCCC3)c2)(C(=O)O)CC1 [Compound 155] | 252 | 100 to 1000
COc1cc(OC)cc(-c2c(C)cc(NC3(C(=O)O)CCOCC3)cc2COC2CCCC2)c1 [Compound 156] | 162 | 100 to 1000
COC(=O)N1CCC(Nc2ccc(-c3cc(OC)cc(OC)c3)c(COC3CCCC3)c2)(C(=O)O)CC1 [Compound 157] | 112 | 100 to 1000
COC(=O)N1CCC(Nc2cc(C)c(-c3cc(C#N)cc(OC)c3)c(COC3CCCC3)c2)(C(=O)O)CC1 [Compound 161] | 976 | 100 to 1000
COc1cc(-c2c(C)cc(OC3(C(=O)O)CCOCC3)cc2COC2CCCC2)cc(OC)c1C [Compound 163] | 382 | 100 to 1000

Structure (SMILES) | IC50 [1] [nM] | IC50 [2] [nM]
COc1cc(O)nc(-c2c(C)cc(NC3(C(=O)O)CCOCC3)cc2COC2CCCC2)c1 [Compound 164] | > 10000 | > 1000
COc1cc(-c2ccc(NC3(C(=O)O)CCOCC3)cc2COC2CCCC2)c(F)c(OC)c1C [Compound 165] | 10.9 | < 100
COc1cc(-c2ccc(NC3(C(=O)O)CCOCC3)cc2COC2CCCC2)c(Cl)c(OC)c1C [Compound 166] | 9.31 | < 100
COc1cc(-c2c(F)cc(NC3(C(=O)O)CCOCC3)cc2COC2CCCC2)c(F)c(OC)c1C [Compound 168] | 27.6 | < 100
COc1cc(OC)cc(-c2ccc(NC3(C(=O)O)CCOCC3)cc2CO[C@H]2CCC[C@H]2NC(C)=O)c1 [Compound 169] | > 10000 | > 1000
COc1cc(OC)nc(-c2c(C)cc(NC3(C(=O)O)CCOCC3)cc2COC2CCCC2)c1 [Compound 170] | 1500 | > 1000
COC(=O)N1CCC(Nc2cc(C)c(-c3cc(OC)ccn3)c(COC3CCCC3)c2)(C(=O)O)CC1 [Compound 171] | > 10000 | > 1000
COc1cccc(-c2ccc(NC3(C(=O)O)CCOCC3)cc2COC2CCCC2)c1C [Compound 172] | 82.1 | < 100
COc1ccc(C)c(-c2ccc(NC3(C(=O)O)CCOCC3)cc2COC2CCCC2)c1 [Compound 173] | 314 | 100 to 1000
COc1cc(OC)c(Cl)c(-c2c(F)cc(NC3(C(=O)O)CCOCC3)cc2COC2CCCC2)c1 [Compound 174] | 29.3 | < 100
COc1cc(-c2c(COC3CCCC3)cc(NC3(C(=O)O)CCOCC3)cc2OC)cc(OC)c1C [Compound 175] | 175 | 100 to 1000
COCC(=O)N1CCC(Nc2cc(C)c(-c3cc(OC)cc(OC)c3)c(COC3CCCC3)c2)(C(=O)O)CC1 [Compound 176] | 883 | 100 to 1000
COc1cc(OC)nc(-c2c(C)cc(NC3(C(=O)O)CCOCC3)cc2COC2CCCC2)n1 [Compound 178] | 1320 | > 1000
COc1cc(OC)c(C)c(-c2ccc(NC3(C(=O)O)CCOCC3)cc2COC2CCCC2)c1 [Compound 179] | 24.9 | < 100
COc1cc(OC)c(C)c(-c2c(F)cc(NC3(C(=O)O)CCOCC3)cc2COC2CCCC2)c1 [Compound 180] | 39.7 | < 100
COc1c(C)ccc(-c2ccc(NC3(C(=O)O)CCOCC3)cc2COC2CCCC2)c1C [Compound 181] | 55.2 | < 100
COc1cc(-c2ccc(NC3(C(=O)O)CCOCC3)cc2COC2CC3CC3C2)cc(OC)c1C (stereo not shown) [Compound 182, 4-((2-((bicyclo[3.1.0]hexan-3-yloxy)methyl)-3′,5′-dimethoxy-4′-methyl-[1,1′-biphenyl]-4-yl)amino)tetrahydro-2H-pyran-4-carboxylic acid] | 9.7 | < 100
COc1cc(-c2c(Cl)cc(NC3(C(=O)O)CCOCC3)cc2COC2CCCC2)cc(OC)c1C [Compound 184] | 33.2 | < 100
COc1cc(OC)cc(-c2c(C)cc(NC3(C(=O)O)Cc4ccccc4C3)cc2COC2CCCC2)c1 [Compound 188] | 2730 | > 1000
COc1c(C(C)=O)ccc(-c2ccc(NC3(C(=O)O)CCOCC3)cc2COC2CCCC2)c1C [Compound 189] | 52.5 | < 100
COc1cc(-c2ccc(OC3(C(=O)O)CCOCC3)cc2COC2CCCC2)c(C)c(OC)c1C [Compound 191] | 34.3 | < 100
COc1cc(-c2ccc(OC3(C(=O)O)CCOCC3)cc2COC2CCCC2)c(Cl)c(OC)c1C [Compound 192, 4-((2′-chloro-2-((cyclopentyloxy)methyl)-3′,5′-dimethoxy-4′-methyl-[1,1′-biphenyl]-4-yl)oxy)tetrahydro-2H-pyran-4-carboxylic acid] | 15.1 | < 100
COc1cc(-c2ccc(NC3(C(=O)O)CCOCC3)cc2COC2CCCC2)c2c(c1C)OCC2 [Compound 193, 4-((3-((cyclopentyloxy)methyl)-4-(6-methoxy-7-methyl-2,3-dihydrobenzofuran-4-yl)phenyl)amino)tetrahydro-2H-pyran-4-carboxylic acid] | 31.9 | < 100
